Source: patent US11968990B2, “Creamer comprising vegetable lipids and allulose” (CJ CHEILJEDANG CORPORATION, priority 2016, dated 2024)

Key:
[1] = Fecal lipid excretion in C57BL/6J mice fed creamer-containing high fat diet with allulose for 8 weeks; type: in vivo
Text: (§1) 16 C57BL/6J mice (male, 4-week-old) were purchased from the Jackson Laboratory (USA) and used. The mice were allowed to adapt to the breeding environment with the lab-chow diet (Purina Co., USA) for 4 weeks. Then, the mice were divided, by using the randomized block design, into a negative control group (PR: 8 mice), in which allulose was not fed, and an experimental group (PRA: 8 mice), in which allulose was fed, and the mice were fed with diet for 8 weeks.
For the diet of the negative control group, AIN-76 diet and HFD were applied, in which creamer [“Prima”, Dongsuh Foods Corporation, Korea; raw materials: 30-38 wt % of hydrogenated vegetable lipid (hydrogenated coconut oil, hydrogenated palm oil), starch syrup (including maltose), sodium caseinate, potassium phosphate dibasic, calcium phosphate tribasic] was used as the vegetable lipid. […]
Among them, 200 μL each were collected for the measurement of cholesterol and free fatty acids and dried again under nitrogen gas, and those for the measurement of neutral lipid and total cholesterol were dissolved in 500 μL of ethanol. […] At the time of quantification of total cholesterol and neutral lipid, 3 mM cholic acid (sodium salt) as an emulsifier and 0.5% Triton X-100 (for removal of turbidity that occurs at the time of color development) were mixed and used.
For the measurement of total cholesterol, 10 μL of the solution dissolved in ethanol (500 μL) and the emulsifier (690 μL) were mixed, and then 800 μL of a test solution (Asan Pharmaceutical kit) for measurement applying the enzyme method of Allain et al. (1974) was mixed. For quantification of both in forms of free cholesterol (FC) and cholesterol ester (CE), CE was converted to FC and fatty acid by cholesterol esterase. […] The obtained product and H2O2 as a substrate were reacted with peroxidase, phenol, and 4-amino-antipyrine to obtain a red coloring material, and then the absorbance was measured at 500 nm. The measured value was quantified by comparing with the cholesterol standard curve. […]

[2] = Body weight of C57BL/6J mice fed creamer-containing high fat diet with allulose for 8 weeks; type: in vivo; conditions: for Body weight: HFD + creamer + 5 wt % allulose (PRA), mean ± SE, in g (unit assumed)
Text: as §1
For the diet of the negative control group, AIN-76 diet and HFD were applied, in which creamer [“Prima”, Dongsuh Foods Corporation, Korea; raw materials: 30-38 wt % of hydrogenated vegetable lipid (hydrogenated coconut oil, hydrogenated palm oil), starch syrup (including maltose), sodium caseinate, potassium phosphate dibasic, calcium phosphate tribasic] was used as the vegetable lipid. For the diet of the experimental group, 5 wt % of sugar among the components of the diet of the negative control group were replaced with allulose (crystal allulose, 98 wt % or higher of allulose based on dry solid content, CJ Cheiljedang) and used (Table 1). All animal experiments were conducted with the approval of the Ethical Commission for Animal Experimentation, Kyungpook National University (Approval No.: KNU-2013-18).
Pair feeding was performed based on the experimental group so as to feed the same level of iso-energetic diet, and thereby the effect of calorie reduction by allulose was excluded. The diet was refrigerated at 4° C. during the breeding period. The mice were bred in individual cages under constant temperature (25±2° C.), constant humidity (50±5%), and dark-light cycles at 12 hour intervals.
Dietary intake was measured at constant time every day, and body weight was measured at constant time every week.

[3] = experimental group (PRA) compared to negative control group (PR)

For O=C(CO)C(O)C(O)C(O)CO [allulose, Allulose (D-psicose)], the “Excretion of lipid as feces” value ([1]; allulose ingested along with the vegetable lipid in creamer) was “promoted”, the “Amount of free fatty acids in the feces vs negative control” value [1, 3] was “significantly increased” and the “Amount of triglycerides in the feces vs negative control” value [1, 3] was “significantly increased”. The Body weight ([2]; 0 week of diet) was 21.47 ± 0.50, the Body weight ([2]; 8th week of diet) was 27.41 ± 0.48 and the “Inhibitory effect against weight gain” value ([2]; experimental group (PRA) vs negative control (PR), from 1st week of diet, 8 weeks) was “significantly inhibited”.
